Structures can show the parent of a compound that is named as a salt.
Assays:
[1] = target: T1, Recombinant human 17β-HSD13 (Homo sapiens, UniProt Q7Z5P4); test: 17β-HSD13 rapid-fire mass spectrometry assay (RF/MS assay); type: biochemical; settings: inhibition of 17β-HSD13, RF/MS assay; HSD17B13 80 nM, LTB4 10 μM, NAD+ 0.5 mM, RT 3 h
T1 construct: host or cells: Sf9 insect cells
T1 sequence (Q7Z5P4 20-300): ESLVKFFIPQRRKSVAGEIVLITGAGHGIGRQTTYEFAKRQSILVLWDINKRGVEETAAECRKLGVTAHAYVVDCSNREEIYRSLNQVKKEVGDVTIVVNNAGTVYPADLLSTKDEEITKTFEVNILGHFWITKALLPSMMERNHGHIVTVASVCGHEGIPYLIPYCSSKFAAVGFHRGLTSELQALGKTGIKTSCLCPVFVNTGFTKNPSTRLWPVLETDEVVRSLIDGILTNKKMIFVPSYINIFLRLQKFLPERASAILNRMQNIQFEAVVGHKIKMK
Text: 17(3-HSD13 rapid-fire mass spectrometry assay (RF/MS assay). Recombinant human 17β-HSD13 was expressed and purified from sf9 cells at Charles River Labs (Saffron Walden, UK). Leukotriene B4 (Catalog #71160-24-2) and 12-oxoleukotriene B4 (Catalog #20140) were purchased from Cayman Chemicals (Ann Arbor, MI). NAD+ (Catalog #N8285), BSA (Catalog #A7030), DMSO (Catalog #D2650), and Tween-20 (Catalog #11332465001) were purchased from Sigma (St. Louis, MO). Formic acid (Catalog #28905) was from ThermoFisher Scientific and 384 deep well PP microplates (Catalog #784261) were from Greiner Bio-One. In a typical IC50 assay performed in a 384w PP microplate, test compounds (0-100 μM) were incubated with HSD17B13 (80 nM), LTB4 (10 μM), and NAD^+ (0.5 mM) in 10 μL assay buffer (20 mM Tris (pH 7.5), BSA (0.005%), and Tween-20 (0.01%)) at RT for 3 h. The assays were quenched by adding 20 μL of 0.15% aqueous formic acid and the plates were frozen at −80° C. RF/MS analysis was performed at PureHoney Technologies (Billerica, MA) on a RapidFire RF300 system (Agilent Technologies, Inc.) coupled to an API 4000 triple quadrupole mass spectrometer (Sciex) equipped with Agilent RapidFire cartridge type A (C4). The mobile phase was 0.09% formic acid and 0.01% trifluoracetic acid in water (Buffer A) and 0.09% formic acid and 0.01% trifluoracetic acid in 80% aqueous acetonitrile (Buffer B). The RapidFire method conditions were the following: 250 ms aspirate, 3000 ms load/desalt, 4000 ms elute, and 500 ms re-equilibrate. RF-MS/MS was performed in negative polarity (−4500 V), the source temperature was 650° C., and gas 1 and gas 2 settings for nitrogen were set to 50. The curtain gas and collision gas were also nitrogen and were set to 20 and 12, respectively. Leukotriene B4 (335.3) and 12-oxoLeukotriene B4 (333.3) SRM transitions were optimized with Discovery Quant software and extracted ion counts for these analytes were determined.
Data Analysis. 17β-HSD13 enzyme activity was measured as percent conversion of extracted ion counts and normalized to high and low controls to determine percent residual activity at various concentrations of test compounds. Data was fitted to normalized activity (variable slope) versus concentration fit in GraphPad Prism 7 to determine IC50. All experiments were run in duplicates.
By using the above method, the inhibition of 17β-HSD13 was evaluated for the compounds of Formula (I). IC50 ranges are as follows: A is <0.1 μM; B is 0.1 μM-1.0 μM; C is 1.0 μM-10 μm; and D is >10 μM.

[2] = target: T2, human HSD17β13 (stable HEK293T cell line overexpressing human HSD17β13) (Homo sapiens, UniProt Q7Z5P4); test: HSD17β13 inhibitor cell-based screening assay (conversion of estradiol-d2 to estrone-d2 by RF-MS); settings: conversion of estradiol-d2 to estrone-d2 after 24 hours
T2 construct: expressed in transfected cells
T2 sequence (Q7Z5P4 20-300): T1 sequence (Q7Z5P4 20-300)
In short: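 Cellular IC50 is based on 24-h conversion of estradiol-d2 (5 μM final) to estrone-d2, measured by RF-MS in acetonitrile-precipitated supernatants. Assay uses human HSD17β13-overexpressing HEK293T cells (7.5E3/well, 1% charcoal/dextran FBS MEM), with compounds dosed as a 9-point 1:3 series to 10 μM final. ATPlite luminescence on overexpressing and parent lines measured viability.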

Row | IC50 [1] [nM] | IC50 [2] [nM] | Structure (SMILES)
1 | < 100 | < 100 | CCOc1ccc(-c2nc3sc4c(O)c(Cl)ccc4c3c(=O)n2Cc2cnco2)c(C2CC2)c1 [Example 72, 7-chloro-2-(2-cyclopropyl-4-ethoxyphenyl)-8-hydroxy-3-(oxazol-5-ylmethyl)benzo[4,5]thieno[2,3-d]pyrimidin-4(3H)-one]
2 | < 100 | < 100 | COc1cc(-c2nc3sc4c(O)c(Cl)ccc4c3c(=O)n2Cc2cnco2)c(C2CC2)cc1Cl [Example 120]
3 | > 10000 | 1000 to 100000 | C=Cc1cccc2c1sc1nc(-c3ccc(OC)cc3C3CC3)n(Cc3cnco3)c(=O)c12 [Example 14, 2-(2-cyclopropyl-4-methoxyphenyl)-3-(oxazol-5-ylmethyl)-8-vinylbenzo[4,5]thieno[2,3-d]pyrimidin-4(3H)-one]
4 | < 100 | < 100 | COc1ccc(-c2nc3sc4c(O)c(Cl)ccc4c3c(=O)n2Cc2cncs2)c(C2CC2)c1 [Example 190]
5 | > 10000 | 1000 to 100000 | COc1ccc(-c2nc3sc4c(-c5ncco5)cccc4c3c(=O)n2Cc2cnco2)c(C2CC2)c1 [Example 9, 2-(2-cyclopropyl-4-methoxyphenyl)-8-(oxazol-2-yl)-3-(oxazol-5-ylmethyl)benzo[4,5]thieno[2,3-d]pyrimidin-4(3H)-one]
6 | < 100 | < 100 | COc1ccc(-c2nc3sc4c(O)c(Cl)ccc4c3c(=O)n2Cc2cnn(C)c2)c(C2CC2)c1 [Example 86]
7 | < 100 | < 100 | O=c1ccc(Cn2c(-c3cc(F)c(F)cc3C3CC3)nc3sc4c(O)c(Cl)ccc4c3c2=O)c[nH]1 [Example 169]
8 | < 100 | < 100 | O=c1c2c(nc(-c3cc(F)c(F)cc3C3CC3)n1Cc1cnco1)sc1c(O)c(Cl)ccc12 [Example 119]
9 | < 100 | < 100 | CC(C)Oc1ccc(-c2nc3sc4c(O)c(Cl)ccc4c3c(=O)n2Cc2cnco2)c(C2CC2)c1 [Example 73]
10 | > 10000 | 1000 to 100000 | COc1ccc(-c2nc3sc4c(N(C(C)=O)C(C)=O)cccc4c3c(=O)n2Cc2cnco2)c(C2CC2)c1 [Example 5, N-acetyl-N-(2-(2-cyclopropyl-4-methoxyphenyl)-3-(oxazol-5-ylmethyl)-4-oxo-3,4-dihydrobenzo[4,5]thieno[2,3-d]pyrimidin-8-yl)acetamide]
11 | < 100 | < 100 | O=c1c2c(nc(-c3cc(Cl)c(F)cc3C3CC3)n1Cc1cnco1)sc1c(O)c(Cl)ccc12 [Example 138]
12 | < 100 | < 100 | O=c1c2c(nc(-c3cc(C(F)(F)F)c(Cl)cc3C3CC3)n1Cc1cnco1)sc1c(O)c(Cl)ccc12 [Example 79]
13 | 100 to 1000 | 1000 to 100000 | COc1ccc(-c2nc3sc4c(OS(=O)(=O)O)cccc4c3c(=O)n2Cc2cnco2)c(C2CC2)c1 [Example 23, 2-(2-cyclopropyl-4-methoxyphenyl)-3-(oxazol-5-ylmethyl)-4-oxo-3,4-dihydrobenzo[4,5]thieno[2,3-d]pyrimidin-8-yl hydrogen sulfate]
14 | > 10000 | 1000 to 100000 | COC(=O)c1cccc2c1sc1nc(-c3ccc(OC)cc3C3CC3)n(Cc3cnco3)c(=O)c12 [Example 1, methyl 2-(2-cyclopropyl-4-methoxyphenyl)-3-(oxazol-5-ylmethyl)-4-oxo-3,4-dihydrobenzo[4,5]thieno[2,3-d]pyrimidine-8-carboxylate]
15 | < 100 | < 100 | O=c1c2c(nc(-c3cc(OC(F)(F)F)ccc3C3CC3)n1Cc1cnco1)sc1c(O)c(Cl)ccc12 [Example 143]
16 | < 100 | < 100 | O=c1c2c(nc(-c3ccc(F)cc3C3CC3)n1Cc1cnco1)sc1c(O)c(Cl)ccc12 [Example 42, 7-chloro-2-(2-cyclopropyl-4-fluorophenyl)-8-hydroxy-3-(oxazol-5-ylmethyl)benzo[4,5]thieno[2,3-d]pyrimidin-4(3H)-one]

Source: patent publication US20250154163A1, “Pyrimidinone-Containing 17-Beta-Hydroxysteroid Dehydrogenase Type 13 Inhibitors” (ENANTA PHARMACEUTICALS, INC., priority 2023, published 2025)
